Test results as given in article PMC9370616, “Three New Acrylic Acid Derivatives from Achillea mellifolium as Potential Inhibitors of Urease from Jack Bean and α-Glucosidase from Saccharomyces cerevisiae” (Molecules, 2022).

Experiments:
[1] = molecular target: α-glucosidase from Saccharomyces cerevisiae; assay: α-Glucosidase inhibition assay (chromogenic method, p-nitrophenyl-α-D-glucopyranoside); assay type: biochemical; conditions: pH 6.9, 37 °C; read-out: α Glucosidase Inhibition (IC50 ± S.E.M)
Method: α-glucosidase from Saccharomyces cerevisiae was purchased from Sigma Aldrich. […] The test samples were prepared (200 µg/mL) in DMSO and 10 μL of each sample was added to 20 μL of α-glucosidase solution (prepared in 120 μL of 0.1 M phosphate buffer, pH 6.9) in a 96-well plate format and incubated for 15 min at 37 °C. After incubation, 20 μL p-nitrophenyl-α-D-glucopyranoside (5 mM) solution was added to this mixture and incubated for a further 15 min. Finally, 80 µL of Na2CO3 solution (0.2 M) was added to this solution to stop the reaction and the absorbance was measured at 410 nm with SpectraMax microplate reader, M2. […] The α-glucosidase inhibition (%) was calculated with the help of the following formula:Inhibition (%) = (Absorbance of Control − Absorbance of Sample)/(Absorbance of Control) × 100
The IC50 values of the active samples were calculated using regression equation by plotting % inhibition at various concentrations.

jack-bean urease = molecular target: T1, jack-bean urease (Canavalia ensiformis, UniProt P07374); assay: biochemical
T1 construct: purchased Sigma Aldrich
T1 sequence (P07374 whole entry, looked up): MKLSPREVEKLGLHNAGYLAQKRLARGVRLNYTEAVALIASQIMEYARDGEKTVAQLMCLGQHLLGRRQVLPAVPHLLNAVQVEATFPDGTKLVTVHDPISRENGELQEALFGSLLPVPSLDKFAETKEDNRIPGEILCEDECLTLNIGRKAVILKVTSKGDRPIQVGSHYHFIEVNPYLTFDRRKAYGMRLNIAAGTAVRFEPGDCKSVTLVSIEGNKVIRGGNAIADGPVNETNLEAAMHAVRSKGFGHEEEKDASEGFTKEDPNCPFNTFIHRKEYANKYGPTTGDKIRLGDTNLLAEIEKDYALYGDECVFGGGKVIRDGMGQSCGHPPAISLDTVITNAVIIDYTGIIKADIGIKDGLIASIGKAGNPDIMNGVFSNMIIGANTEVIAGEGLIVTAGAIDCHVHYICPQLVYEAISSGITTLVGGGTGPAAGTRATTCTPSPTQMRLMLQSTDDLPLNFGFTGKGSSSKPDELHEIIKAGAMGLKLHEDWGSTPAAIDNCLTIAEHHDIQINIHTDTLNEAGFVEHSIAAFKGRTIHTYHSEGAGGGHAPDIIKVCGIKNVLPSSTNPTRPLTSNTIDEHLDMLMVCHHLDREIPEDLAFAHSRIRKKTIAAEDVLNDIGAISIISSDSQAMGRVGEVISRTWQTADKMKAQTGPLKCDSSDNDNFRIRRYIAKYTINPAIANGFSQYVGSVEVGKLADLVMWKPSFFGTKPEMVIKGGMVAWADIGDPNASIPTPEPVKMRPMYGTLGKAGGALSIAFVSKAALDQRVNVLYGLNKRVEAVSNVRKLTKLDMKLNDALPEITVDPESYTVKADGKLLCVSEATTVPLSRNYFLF
Method: The assay mixture, containing 50 μL (2 mg/mL) of jack-bean urease (purchased from Sigma Aldrich) and 100 μL of different concentration of test compounds, which were previously dissolved in ethanol 20%, was added to 850 μL of 25 mM urea and pre-incubated for 0.5 h in a water bath at 37 °C. The urease reaction was stopped after 30 min incubation by following procedure.
Urease activity was determined by measuring ammonia production using the indophenol method, as described by Weatherburn. After pre-incubation, 500 μL of phenol reagent (1% w/v phenol and 0.005% w/v sodium nitroprusside) and 500 μL of alkali reagent (1% w/v NaOH and 0.075% active chloride NaOCl) were added to 100 μL of incubation mixture and kept at 37 °C for 30 min. The absorbance was measured at 625 nm. All experiments were performed in triplicate in a final volume of 1 mL, and thiourea was used as a standard urease inhibitor.
Percentage inhibitions were calculated using the formula:(100 − (OD sample/OD control) × 100)
The IC50 values were then calculated using GraphPad Prism 5 software.

SMILES: CCOC(=O)/C=C/[C@H]1C(C)=CC(=O)[C@H](OC)C1(C)C (relative stereo) [Compound 1, ethyl (E)-3-((1S,5R)-5-methoxy-2,6,6-trimethyl-4-oxocyclohex-2-en-1-yl)acrylate]
- IC50 [1]: 331.47 ± 0.04 µM
- IC50 (jack-bean urease): 16.87 ± 0.02 µM

SMILES: COC(=O)/C=C/[C@H]1C(C)=CC(=O)[C@H](OC)C1(C)C (relative stereo) [Compound 2, methyl (E)-3-((1S,5R)-5-methoxy-2,6,6-trimethyl-4-oxocyclohex-2-en-1-yl)acrylate]
- IC50 [1]: 294.18 ± 0.07 µM
- IC50 (jack-bean urease): 13.71 ± 0.07 µM

SMILES: CO[C@H]1C(=O)C=C(C)[C@H](/C=C/C(C)=O)C1(C)C (relative stereo) [Compound 3, (4S,6R)-6-methoxy-3,5,5-trimethyl-4-((E)-3-oxobut-1-en-1-yl)cyclohex-2-en-1-one]
- IC50 [1]: 310.68 ± 0.05 µM
- IC50 (jack-bean urease): 10.46 ± 0.03 µM
